“Also recorded” adds a separate entry of the source. Where a name gives a salt, the structure may show the parent alone.
What was measured:
V2-receptor = biological target: T1, V2-receptor (Homo sapiens, UniProt P30518); test: Aquaretic action in normal subjects (evidence of V2-receptor antagonism); type: in vivo; conditions: for Dose at which aquaretic action with decrease in urine osmolarity starts: normal subjects
T1 construct: from tissue; host or cells: healthy human subjects in vivo (renal effect)
T1 sequence (P30518 whole entry): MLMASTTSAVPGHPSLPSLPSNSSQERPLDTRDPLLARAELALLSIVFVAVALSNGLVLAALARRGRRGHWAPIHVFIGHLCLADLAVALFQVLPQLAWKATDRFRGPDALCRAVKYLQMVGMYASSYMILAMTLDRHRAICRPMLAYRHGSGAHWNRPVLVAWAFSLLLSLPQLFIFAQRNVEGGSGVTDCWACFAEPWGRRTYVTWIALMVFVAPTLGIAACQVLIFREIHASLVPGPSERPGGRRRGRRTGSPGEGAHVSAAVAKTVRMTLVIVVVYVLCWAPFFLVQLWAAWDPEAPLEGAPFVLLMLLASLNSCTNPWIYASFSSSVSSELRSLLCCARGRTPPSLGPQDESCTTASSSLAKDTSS

[1] = Safety and tolerability in Phase I studies (approximately 250 subjects); type: in vivo, human
[2] = tested on: AVP-induced dermal vasoconstriction; test: AVP-induced dermal vasoconstriction in Phase I subjects; type: in vivo, human; conditions: 50 mg IV
[3] = tested on: AVP-induced platelet aggregation; test: AVP-induced platelet aggregation in Phase I subjects (evidence of V1A antagonist activity); type: in vivo, human; conditions: 20 mg/day orally or 2.5 mg IV
[4] = Example 1: double-blind, placebo-controlled IV dose-response study of cardiopulmonary hemodynamics in patients with Class III/IV heart failure; type: in vivo, human
Description: Patients must be receiving background therapy of diuretics, ACE inhibitors, and optionally digoxin and/or β-blocker; patients are stratified as to whether they are receiving concomitant β-blocker treatment. Patients should take their daily dose of concomitant heart failure medications within 2 hours of catheter insertion. No additional doses of background heart failure medications should be administered during the study treatment phase. After insertion of a balloon-flotation pulmonary artery catheter, serial measurements are obtained over an 8-to 18-hour baseline and stabilization period.
Hemodynamic parameters and vital signs are measured at baseline during the 2 hours prior to drug administration and 30 minutes, 1, 2, 3, 4, 6, 8, and 12 hours after start of the IV infusion. A urethral catheter is placed and urine output is measured hourly for 2 hours prior until 12 hours post-study drug administration. Fluid intake is restricted to 250 mL every 2 hours (except at time of IV infusion) from time of insertion of a Swan-Ganz catheter and throughout the treatment period. […] Serum electrolytes, BUN, creatinine, and serum osmolality are measured at baseline and 4 and 12 hours post treatment. Clinical laboratory and vasopressin plasma levels are measured at baseline and 12 hours post-drug administration. A numeric rating scale for assessing dyspnea is administered at baseline and 12 hours after study drug administration.
Patients refrain from taking concomitant heart failure medications during the 12-hour treatment period. Patients are stratified as to whether they are receiving concomitant treatment with a β-blocker. Hemodynamic parameters (cardiac output, intrapulmonary and systemic pressures) and vital signs are measured at 0.5, 1, 2, 3, 4, 6, 8, and 12 hours after start of the IV infusion. Clinical laboratory and vasopressin plasma levels are measured 12 hours postdose. […] Serum electrolytes, BUN, creatinine and serum osmolality are measured at 4 and 12 hours posttreatment. Hourly urine output measurements are obtained during the entire 12-hour treatment phase. The numeric rating scale for assessing dyspnea is administered 12 hours postadministration of study medication.
For this study, hemodynamic efficacy parameters of PCWP, CI, SVR, and PVR are evaluated in terms of their response profile. The response profile is assessed in terms of peak change, and area under the curve (AUC) delimited by the parameter change from baseline and measurement times. The peak change is defined as the maximum change from baseline, within the 3 to 6 hours after treatment administration, in the hemodynamic parameter of interest. The baseline value is considered the last acceptable measurement taken before treatment administration. The AUC is determined using the “linear trapezoidal rule,” which delimits areas of each trapezoid by: two points on the graph of change from baseline against time, perpendiculars from the points to the X-axis, and the X-axis are summed up to get AUC. If measurements are missing at certain times, the AUC are calculated using all other available observations. Dose response over the treatment groups are assessed for selected measures.
The secondary parameter of urine output is summarized at baseline, and each collection time. In addition, a numeric rating scale is used for assessing dyspnea. The corresponding change from baseline for these parameters is summarized. Descriptive summaries include mean, standard error, median, minimum, and maximum. Other concurrently measured hemodynamic parameters (ie, RA, PAs, PAd, cuff SBP, cuff DBP, calculated MAP, and HR) is also summarized.
Hemodynamic assessments are obtained at baseline and at 0.5, 1, 2, 3, 4, 6, 8, and 12 hours after administration of study medication.

[5] = Example 2: placebo-controlled study of YM087 20 mg IV twice, relief of pulmonary congestion in acute decompensated heart failure; type: in vivo, human; conditions: listed as conivaptan, hydrochloride
Description: The trial explores the effect on relief of pulmonary congestion in patients with a history of NYHA Class II-IV heart failure hospitalized in a monitored unit for acute decompensated heart failure. Patients may be on background therapy optionally with ACE-inhibitors, diuretics, digoxin, and β-blockers as long as these medications (excepting diuretics) were initiated prior to admission. On arrival to the hospital, the patient was assessed for enrollment criteria. If the criteria are met, consent was obtained and the patient enrolled. Patients needing treatment with a parenteral inotropic agent (eg milrinone; dobutamine) or who are intubated are excluded. Respiratory rate will be measured. Clinical laboratory parameters are measured if not assessed within 2 hours of screening. Once consented, the patient's clinical distress was assessed by vital signs, the Acute Heart Failure Score, the Physician/Study Coordinator Clinical Assessment Scale for patient's respiratory and global status, and the Patient Visual Analog Scale for respiratory and global status. […] The baseline respiratory rate was measured 5 minutes prior to administration of study medication (must be ≧24 to meet inclusion criteria). […] Clinical laboratory parameters were assessed 8 and 24 hours after start of the first infusion of study medication. […]

[6] = Example 3: placebo-controlled study of YM087 40 mg IV twice, relief of pulmonary congestion in exacerbation of congestive heart failure; type: in vivo, human; conditions: FIG. 8; listed as conivaptan, hydrochloride
Description: Patient who meets the inclusion criteria will then be randomized to 1 of 2 treatment group: double-blind treatment phase. […] Patients were administered 100% oxygen for 5 to 10 minutes, and blood gases were measured for assessment of A-a gradient. A baseline respiratory rate is measured 5 minutes prior to administration of study medication (RR must be ≧22 to meet inclusion criteria). […] All patients received usual care at the discretion of the investigator including IV loop diuretics, oxygen, morphine, and IV vasodilators. All patients were administered IV furosemide 20 mg as a minimum dose initially. No additional doses of diuretics should be administered for at least 2 hours after administration of the first dose of study medication; the dose was subsequently adjusted as needed based on the patient's clinical status at the discretion of the investigator. […] Body weight was assessed prior the second dose of study medication. […] During the study, the patient should be receiving the same % oxygen for all respiratory rate and A-a gradient assessments. […] Clinical laboratory parameters were assessed 8 and 24 hours after the first dose of study medication. Serum electrolytes, BUN, and creatinine were measured 4, 8, 12, 18, and 24 hours after administration of the first dose of study medication.

[7] = approximately 250 subjects treated

Cc1nc2c([nH]1)-c1ccccc1N(C(=O)c1ccc(NC(=O)c3ccccc3-c3ccccc3)cc1)CC2 [YM087, N-[4-(2-methyl-4,5,6-tetrahydroimidazo[4,5-d][1]benzazepin-6-ylcarbonyl)phenyl]biphenyl-2-carboxamide hydrochloride]
Duration of increased urine production rate postdosing (V2-receptor; IV 50 mg/day): ≤ 6 h | Duration of increased urine production rate postdosing (V2-receptor; IV doses up to 250 μg/kg): up to 3 hours | Dose at which aquaretic action with decrease in urine osmolarity starts (V2-receptor; IV): 0.05 mg/kg | Dose at which aquaretic action with decrease in urine osmolarity starts (V2-receptor; oral): 15 mg | Tolerability of aquaretic effects at higher doses ([1]; 120 mg QD or 60 mg BID orally, or 50 mg IV): too uncomfortable to be tolerable | Drug-related serious adverse events [1, 7]: no drug-related serious adverse events were reported | Major safety concerns [1, 7]: no major safety concerns were identified | Urinary osmolarity ([1]; at higher doses): decreased | Plasma osmolarity ([1]; at higher doses, with or without an increase in plasma sodium): increased | Biochemical or hematological laboratory parameters ([1]; human, in vivo): No drug-related trend | Most frequent adverse events regardless of treatment association ([1]; human, in vivo): mild or moderate thirst and mild headache | Vital signs (blood pressure and heart rate) ([1]; human, in vivo): unaffected | Other adverse events ([1]; human, in vivo, hydrochloride): flushes, a sensation of cold extremities, abdominal complaints, abnormal stools, syncope, dizziness, palpitations, and postural hypotension | Grand mal seizure ([1]; one patient with severe heart failure, 40 mg BID): grand mal seizure that was possibly related to YM087 | Leukopenia / decrease in white blood cell counts ([1]; three subjects who received YM087, one who received placebo, hydrochloride): minor, reversible decrease in white blood cell counts; also recorded: minor, reversible leukopenia | Inhibition of AVP-induced dermal vasoconstriction [2]: Total inhibition | Inhibition of AVP-induced platelet aggregation [3]: Inhibition | Reduction of right atrial pressure (RAP) ([4]; 40 mg IV dose, FIG. 1): ≤ 3 mm Hg | Reduction of pulmonary artery systolic pressure (PAs) ([4]; 40 mg IV dose, FIG. 2): ≤ 4 mm Hg | Right atrial pressure (RAP) ([4]; FIG. 1): reduce | Pulmonary artery systolic pressure (PAS) ([4]; FIG. 2): reduce | Mean arterial pressure (MAP) ([4]; FIG. 3): no effect | Systolic blood pressure (SBP) ([4]; FIG. 4): no effect | Systemic hemodynamics ([4]; human, in vivo): no effect | Changes in inspiratory crackles compared to placebo ([4]; post IV dose of 10, 20, 40 mg, FIG. 9): fewer patients on conivaptan had worsened inspiratory crackles | Patient visual analog scale of respiratory status ([5]; FIG. 6): improved respiratory status; also recorded: improvement | Patient numeric rating scale of respiratory status ([5]; FIG. 7): improved respiratory status; also recorded: improvement | Alveolar-arterial gradient compared to placebo [6]: improved; also recorded: apparent improvement
